Read-outs that look alike come from different tables or passages of the source.
System: HIV-1 (H9/IIIB strain) virus
Assay: microbe, parasite or virus in culture
Format: cell-based
Settings: MT4-GFP cells infected with HIV-1 H9/IIIB, inhibition of reproductive ratio
[1] = 0% NHS condition (RPMI 1640), read-out: Viking, IC50 (0% NHS)
[2] = 100% normal human serum (NHS) condition, read-out: Viking, IC50 (100% NHS)

SMILES	IC50 [1]	IC50 [2]
COC1CCN2CN(CC1)n1cc(C(=O)NCc3ccc(F)c(Cl)c3F)c(=O)c(O)c1C2=O (single isomer, unassigned) [Example 21D]	2 nM	472 nM
COC1CCN2CN(CC1)n1cc(C(=O)NCc3c(F)cccc3F)c(=O)c(O)c1C2=O (single isomer, unassigned) [Example 22A]	8.2 nM	333 nM
COC1CCN2CN(CC1)n1cc(C(=O)NCc3c(F)cccc3F)c(=O)c(O)c1C2=O (single isomer, unassigned) [Example 22B]	1.6 nM	161 nM
COC1CCN2CN(CC1)n1cc(C(=O)NCc3c(F)cccc3F)c(=O)c(O)c1C2=O (single isomer, unassigned) [Example 22C]	2 nM	88 nM
COC1CCN2CN(CC1)n1cc(C(=O)NCc3c(F)cccc3F)c(=O)c(O)c1C2=O (single isomer, unassigned) [Example 22D]	1.4 nM	311 nM
COC1CCN2CN(CC1)n1cc(C(=O)NCc3cccc(F)c3F)c(=O)c(O)c1C2=O (single isomer, unassigned) [Example 23A]	5.8 nM	728 nM
COC1CCN2CN(CC1)n1cc(C(=O)NCc3cccc(F)c3F)c(=O)c(O)c1C2=O (single isomer, unassigned) [Example 23B]	2.1 nM	314 nM
COC1CCN2CN(CC1)n1cc(C(=O)NCc3cccc(F)c3F)c(=O)c(O)c1C2=O (single isomer, unassigned) [Example 23C]	4.3 nM	83 nM
COC1CCN2CN(CC1)n1cc(C(=O)NCc3cccc(F)c3F)c(=O)c(O)c1C2=O (single isomer, unassigned) [Example 23D]	1.9 nM	567 nM
O=C(NCc1ccc(F)cc1F)c1cn2c(c(O)c1=O)C(=O)N1CCCCN2C1 [Example 2A]	4.04 nM	4160 nM
O=C(NCc1ccc(F)cc1F)c1cn2c(c(O)c1=O)C(=O)N1CCCCN2C1 [Example 2B]	1.53 nM	234 nM
O=C(NCc1ccc(F)cc1F)c1cn2c(c(O)c1=O)C(=O)N1CCCCCN2C1 [Example 8A]	1.03 nM	1570 nM
O=C(NCc1ccc(F)cc1F)c1cn2c(c(O)c1=O)C(=O)N1CCCCCN2C1 [Example 8B]	0.86 nM	122 nM
O=C(NCc1cccc(Cl)c1F)c1cn2c(c(O)c1=O)C(=O)N1CCCCCN2C1 [Example 9A]	2.57 nM	5620 nM
O=C(NCc1cccc(Cl)c1F)c1cn2c(c(O)c1=O)C(=O)N1CCCCCN2C1 [Example 9B]	1.15 nM	196 nM
O=C(NCc1ccc(F)c(Cl)c1F)c1cn2c(c(O)c1=O)C(=O)N1CCCCCN2C1 [Example 10A]	1.89 nM	8580 nM
O=C(NCc1ccc(F)c(Cl)c1F)c1cn2c(c(O)c1=O)C(=O)N1CCCCCN2C1 [Example 10B]	1.65 nM	225 nM
O=C(NCc1c(F)ccc(Cl)c1F)c1cn2c(c(O)c1=O)C(=O)N1CCCCCN2C1 [Example 11A]	3.45 nM	12500 nM

SMILES	IC50 [1]	IC50 [2]
O=C(NCc1c(F)ccc(Cl)c1F)c1cn2c(c(O)c1=O)C(=O)N1CCCCCN2C1 [Example 11B]	2.09 nM	358 nM
O=C(NCc1c(F)ccc(Cl)c1F)c1cn2c(c(O)c1=O)C(=O)N1CCCCCCN2C1 [Example 12A]	14.3 nM	10700 nM
O=C(NCc1c(F)ccc(Cl)c1F)c1cn2c(c(O)c1=O)C(=O)N1CCCCCCN2C1 [Example 12B]	3.21 nM	428 nM
O=C(NCc1cccc(Cl)c1F)c1cn2c(c(O)c1=O)C(=O)N1CCOCCN2C1 [Example 13A]	2.74 nM	3360 nM
O=C(NCc1cccc(Cl)c1F)c1cn2c(c(O)c1=O)C(=O)N1CCOCCN2C1 [Example 13B]	2.19 nM	146 nM
O=C(NCc1c(F)cc(F)cc1F)c1cn2c(c(O)c1=O)C(=O)N1CCOCCN2C1 [Example 14A]	5.4 nM	4210 nM
O=C(NCc1c(F)cc(F)cc1F)c1cn2c(c(O)c1=O)C(=O)N1CCOCCN2C1 [Example 14B]	1.66 nM	157 nM
O=C(NCc1ccc(F)c(Cl)c1F)c1cn2c(c(O)c1=O)C(=O)N1CCOCCN2C1 [Example 15A]	3.7 nM	10700 nM
O=C(NCc1ccc(F)c(Cl)c1F)c1cn2c(c(O)c1=O)C(=O)N1CCOCCN2C1 [Example 15B]	1.61 nM	224 nM
O=C(NCc1c(F)ccc(Cl)c1F)c1cn2c(c(O)c1=O)C(=O)N1CCOCCN2C1 [Example 16A]	2.7 nM	12300 nM
O=C(NCc1c(F)ccc(Cl)c1F)c1cn2c(c(O)c1=O)C(=O)N1CCOCCN2C1 [Example 16B]	1.2 nM	247 nM
CN1CCN2CN(CC1)n1cc(C(=O)NCc3cccc(Cl)c3F)c(=O)c(O)c1C2=O [Example 24A]	5.1 nM	665 nM
CN1CCN2CN(CC1)n1cc(C(=O)NCc3cccc(Cl)c3F)c(=O)c(O)c1C2=O [Example 24B]	3.5 nM	485 nM
CN1CCN2CN(CC1)n1cc(C(=O)NCc3c(F)ccc(Cl)c3F)c(=O)c(O)c1C2=O [Example 25A]	4.5 nM	1000 nM
CN1CCN2CN(CC1)n1cc(C(=O)NCc3c(F)ccc(Cl)c3F)c(=O)c(O)c1C2=O [Example 25B]	2.1 nM	139 nM
O=C(NCc1ccc(F)cc1F)c1cn2c(c(O)c1=O)C(=O)N1CCC(F)(F)CCN2C1 [Example 26A]	6.6 nM	869 nM
O=C(NCc1ccc(F)cc1F)c1cn2c(c(O)c1=O)C(=O)N1CCC(F)(F)CCN2C1 [Example 26B]	3.2 nM	91 nM

— patent US11413292B2, “Tricyclic heterocycle compounds useful as HIV integrase inhibitors” (Merck Sharp & Dohme Corp., priority 2018, dated 2022)
